Patent publication US20250051338A1, “TYK2 DEGRADERS AND USES THEREOF” (Kymera Therapeutics, Inc., priority 2021, published 2025)

Legend:
Format in all cases: cell-based
[1] = biological target: T1, TYK2 (Homo sapiens, UniProt P29597); assay: TYK2 degradation MSD assay in OCI-LY10 cells; parameters: endogenous in cells; host or cells: EBV-B cells; conditions: 4 to 24 hours incubation, read-out: TYK2 MSD DC50 rating in OCI-LY10
Outline: (§1)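 Cells (0.4 million per well) were treated with a 9-point, 1:3 compound series from a top concentration of 1 to 10 μM for 4 to 24 hours at 37° C, then lysed in RIPA with protease/phosphatase inhibitors. Remaining TYK2 was quantified by sandwich MSD immunoassay; DC50 came from four-parameter nonlinear fits.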

[2] = biological target: T1, TYK2; assay: TYK2 degradation MSD assay in human PBMC cells; parameters: endogenous in cells; host or cells: human PBMC; conditions: 4 to 24 hours incubation, read-out: TYK2 MSD DC50 rating in human PBMC
Outline: as §1

[3] = biological target: T1, TYK2; assay: TYK2 degradation MSD assay in EBV-B cells; parameters: endogenous in cells; host or cells: EBV-B cells; conditions: 4 to 24 hours incubation, read-out: TYK2 MSD DC50 rating in EBV-B
Outline: as §1

T1 sequence (P29597 whole entry): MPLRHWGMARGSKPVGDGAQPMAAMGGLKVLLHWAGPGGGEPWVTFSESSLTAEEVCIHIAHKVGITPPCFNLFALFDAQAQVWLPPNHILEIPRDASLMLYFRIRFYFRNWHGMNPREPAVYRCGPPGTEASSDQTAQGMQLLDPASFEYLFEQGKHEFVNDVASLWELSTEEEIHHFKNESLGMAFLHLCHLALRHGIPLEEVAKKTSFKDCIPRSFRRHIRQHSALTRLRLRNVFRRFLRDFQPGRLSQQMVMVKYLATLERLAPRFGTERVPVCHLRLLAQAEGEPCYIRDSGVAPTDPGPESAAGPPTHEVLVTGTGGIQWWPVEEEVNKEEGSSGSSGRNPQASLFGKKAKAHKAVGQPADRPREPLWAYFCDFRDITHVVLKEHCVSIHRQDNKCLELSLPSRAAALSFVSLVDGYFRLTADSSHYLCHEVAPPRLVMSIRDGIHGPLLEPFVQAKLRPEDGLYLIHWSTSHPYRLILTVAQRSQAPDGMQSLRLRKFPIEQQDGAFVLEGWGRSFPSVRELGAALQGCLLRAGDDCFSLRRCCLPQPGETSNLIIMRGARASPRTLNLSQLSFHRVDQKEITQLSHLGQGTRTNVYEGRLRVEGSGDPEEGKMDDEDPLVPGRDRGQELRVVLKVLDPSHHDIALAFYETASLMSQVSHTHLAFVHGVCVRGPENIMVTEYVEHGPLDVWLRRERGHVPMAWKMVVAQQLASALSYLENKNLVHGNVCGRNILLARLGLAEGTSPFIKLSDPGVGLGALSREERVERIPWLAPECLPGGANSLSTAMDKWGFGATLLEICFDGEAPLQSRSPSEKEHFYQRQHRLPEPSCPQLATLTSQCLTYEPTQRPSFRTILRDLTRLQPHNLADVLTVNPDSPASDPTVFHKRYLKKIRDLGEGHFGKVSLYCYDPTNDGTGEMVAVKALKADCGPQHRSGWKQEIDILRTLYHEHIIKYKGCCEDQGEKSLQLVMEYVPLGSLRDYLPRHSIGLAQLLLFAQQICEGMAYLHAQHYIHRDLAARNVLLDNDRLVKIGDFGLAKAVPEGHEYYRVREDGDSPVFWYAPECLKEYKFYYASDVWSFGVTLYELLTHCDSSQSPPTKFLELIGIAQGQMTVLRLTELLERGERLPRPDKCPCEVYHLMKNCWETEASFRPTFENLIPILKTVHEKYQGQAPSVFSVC

| DC50 [1] [nM] | DC50 [2] [nM] | DC50 [3] [nM] | Compound |
| --- | --- | --- | --- |
| > 100 | > 100 | > 100 | CNc1cc(Nc2cccc(CN(C)C3CCN(c4cccc5c4n(C)c(=O)n5C4CCC(=O)NC4=O)CC3)c2)nn2c(C(=O)NC3CC3)cnc12 (stereo not drawn) [Example K597] |
| > 100 | > 100 | > 100 | CNC(=O)c1cnc(Nc2ccc(C(=O)NCCCCCCCCc3cc(N4CCCC(C(=O)Nc5ccc(=O)n(CC(=O)OC)c5)C4)ccn3)cn2)cc1Nc1cccc(-c2ncc(F)cn2)c1OC (stereo not drawn) [Example K598] |
| > 100 | > 100 | > 100 | CNc1cc(Nc2cccn(-c3ccc(C(=O)NCCCCCCCCc4cncc(N5CCC[C@H](C(=O)Nc6ccc(=O)n(CC(=O)OC)c6)C5)c4)cn3)c2=O)nn2c(C(=O)N[C@@H]3C[C@@H]3F)cnc12 [Example K599] |
| > 100 | > 100 | > 100 | CNc1cc(Nc2cccc(CN3CCC4(CC3)CCN(c3ccc5c(c3)[nH]c(=O)n5C3CCC(=O)NC3=O)C4)c2)nn2c(C(=O)NC3CC3)cnc12 (stereo not drawn) [Example K601] |
| > 100 | > 100 | > 100 | CNc1cc(Nc2cccc(CN3CCN(Cc4ccc5c(c4)n(C)c(=O)n5C4CCC(=O)NC4=O)CC3)c2)nn2c(C(=O)NC3CC3)cnc12 (stereo not drawn) [Example K602] |
| 1 to 10 | > 100 | > 100 | CNc1cc(Nc2cccc(CN3CC(N4CCN(c5ccc6c(c5)n(C)c(=O)n6C5CCC(=O)NC5=O)CC4)C3)c2)nn2c(C(=O)NC3CC3)cnc12 (stereo not drawn) [Example K603] |
| < 1 | > 100 | > 100 | CNc1cc(Nc2cccc(CN3CC4(C3)CN(c3ncc(C#Cc5ccc6c(c5)n(C)c(=O)n6C5CCC(=O)NC5=O)cn3)C4)c2)nn2c(C(=O)NC3CC3)cnc12 (stereo not drawn) [Example K604] |
| > 100 | > 100 | > 100 | CNc1cc(Nc2cccc(CN(C)Cc3ccc(-c4ccc5c(c4)n(C)c(=O)n5C4CCC(=O)NC4=O)cn3)c2)nn2c(C(=O)NC3CC3)cnc12 (stereo not drawn) [Example K605] |
| > 100 | > 100 | > 100 | CNc1cc(Nc2cccc(CN3CCC(CN(C)c4ccc5c(c4)n(C)c(=O)n5C4CCC(=O)NC4=O)CC3)c2)nn2c(C(=O)NC3CC3)cnc12 (stereo not drawn) [Example K606] |
| > 100 | > 100 | > 100 | CNc1cc(Nc2cccc(CN3CC(C)(Cc4ccc5c(c4)n(C)c(=O)n5C4CCC(=O)NC4=O)C3)c2)nn2c(C(=O)NC3CC3)cnc12 (stereo not drawn) [Example K607] |
| 1 to 10 | > 100 | > 100 | CNc1cc(Nc2cccc(CN3CCCC4(C3)CN(c3ncc(C#Cc5ccc6c(c5)n(C)c(=O)n6C5CCC(=O)NC5=O)cn3)C4)c2)nn2c(C(=O)NC3CC3)cnc12 (stereo not drawn) [Example K608] |
| 1 to 10 | > 100 | > 100 | CNc1cc(N2CCc3c(-c4ccc(CN5CCC6(CC5)CCN(c5ccc(-c7ccc8c(c7)n(C)c(=O)n8C7CCC(=O)NC7=O)cc5)CC6)cn4)cccc32)nn2c(C(=O)N[C@@H]3C[C@@H]3F)cnc12 (stereo partly drawn) [Example K609] |
| > 100 | > 100 | > 100 | CNc1cc(Nc2cccc(CN3CC4(C3)CN(c3ccc(-c5ccc6c(c5)n(C)c(=O)n6C5CCC(=O)NC5=O)cc3)C4)c2OC)nn2c(C(=O)N[C@@H]3C[C@@H]3F)cnc12 (stereo partly drawn) [Example K610] |
| 1 to 10 | > 100 | > 100 | CNc1cc(Nc2cccc(-c3ccc(CN4CCN(c5ccc(-c6ccc7c(c6)n(C)c(=O)n7C6CCC(=O)NC6=O)cc5)CC4)cn3)c2C(F)F)nn2c(C(=O)N[C@@H]3C[C@@H]3F)cnc12 (stereo partly drawn) [Example K611] |
| 10 to 100 | > 100 | > 100 | CNc1cc(Nc2cccc(CN3CCN(CCc4ccc5c(c4)n(C)c(=O)n5C4CCC(=O)NC4=O)CC3)c2)nn2c(C(=O)NC3CC3)cnc12 (stereo not drawn) [Example K612] |
| 1 to 10 | > 100 | > 100 | CNc1cc(Nc2cccc(CN3CCN(CCc4ccc5c(c4)n(C)c(=O)n5C4CCC(=O)NC4=O)CC3)c2)nn2c(C(=O)NC3CC3)cnc12 (stereo not drawn) [Example K613] |
| > 100 | > 100 | > 100 | CNc1cc(Nc2cccc(CN3CC4(CCN(c5ccc6c(c5)n(C)c(=O)n6C5CCC(=O)NC5=O)CC4)C3)c2)nn2c(C(=O)NC3CC3)cnc12 (stereo not drawn) [Example K614] |
| > 100 | > 100 | > 100 | CNc1cc(Nc2cccc(-c3ccc(CN4CCN(c5ccc(-c6ccc7c(c6)n(C)c(=O)n7C6CCC(=O)NC6=O)cc5)CC4)cn3)c2OC)nn2ccnc12 (stereo not drawn) [Example K615] |

| DC50 [1] [nM] | DC50 [2] [nM] | DC50 [3] [nM] | Compound |
| --- | --- | --- | --- |
| 1 to 10 | > 100 | > 100 | CNc1cc(N2CCc3c(-c4ccc(C(=O)N5CCN([C@H]6CC[C@H](c7ccc(-c8ccc9c(c8)n(C)c(=O)n9C8CCC(=O)NC8=O)cc7)CC6)CC5)cn4)cccc32)nn2c(C(=O)N[C@@H]3C[C@@H]3F)cnc12 (stereo partly drawn) [Example K616] |
| < 1 | > 100 | > 100 | CNc1cc(Nc2cccc(-c3ccc(C(=O)N4CCN(C5CCC(c6ccc(-c7ccc8c(c7)n(C)c(=O)n8C7CCC(=O)NC7=O)cc6)CC5)CC4)cn3)c2OC)nn2c(C(=O)N[C@@H]3C[C@@H]3F)cnc12 (stereo partly drawn) [Example K617] |
| > 100 | > 100 | > 100 | CNc1cc(Nc2cccn(-c3ccc(C(=O)NCCOCCOCCOCCOCCNc4cncc(N5CCCC(C(=O)Nc6ccc(=O)n(CC(=O)OC)c6)C5)c4)cn3)c2=O)nn2c(C(=O)N[C@@H]3C[C@@H]3F)cnc12 (stereo partly drawn) [Example K618] |
| 1 to 10 | > 100 | > 100 | CNc1cc(Nc2cccc(N3CCC(CN4CCN(c5ccc(-c6ccc7c(c6)n(C)c(=O)n7C6CCC(=O)NC6=O)cc5)CC4)CC3)c2OC)nn2c(C(=O)N[C@@H]3C[C@@H]3F)cnc12 (stereo partly drawn) [Example K619] |
| > 100 | > 100 | > 100 | CNc1cc(N2CCN(c3ccc(CN4CCN(c5ccc(-c6ccc7c(c6)n(C)c(=O)n7C6CCC(=O)NC6=O)cc5)CC4)cc3)CC2)nn2c(C(=O)N[C@@H]3C[C@@H]3F)cnc12 (stereo partly drawn) [Example K620] |
| 1 to 10 | > 100 | > 100 | CNc1cc(Nc2cccc(C3CCC(CN4CCN(c5ccc(-c6ccc7c(c6)n(C)c(=O)n7C6CCC(=O)NC6=O)cc5)CC4)CC3)c2OC)nn2c(C(=O)N[C@@H]3C[C@@H]3F)cnc12 (stereo partly drawn) [Example K621] |
| < 1 | > 100 | > 100 | CNc1cc(Nc2cccc(N3CCC(CN4CCC(c5ccc(-c6ccc7c(c6)n(C)c(=O)n7C6CCC(=O)NC6=O)cc5)CC4)CC3)c2OC)nn2c(C(=O)N[C@@H]3C[C@@H]3F)cnc12 (stereo partly drawn) [Example K622] |
| < 1 | > 100 | > 100 | CNc1cc(Nc2cccc(N3CCC(CN4CC5(C4)CN(c4ccc(-c6ccc7c(c6)n(C)c(=O)n7C6CCC(=O)NC6=O)cc4)C5)CC3)c2OC)nn2c(C(=O)N[C@@H]3C[C@@H]3F)cnc12 (stereo partly drawn) [Example K623] |
| < 1 | > 100 | > 100 | CNc1cc(N2CCc3c(-c4ccc(CN5CCC6(CC5)CCN(C(=O)c5cccc(N7CCC(=O)NC7=O)c5)CC6)cn4)cccc32)nn2c(C(=O)N[C@@H]3C[C@@H]3F)cnc12 [Example K625] |
| < 1 | > 100 | > 100 | CNc1cc(N2CCc3c(-c4ccc(C(=O)N5CCC(CN6CCN(c7ccc(-c8ccc9c(c8)n(C)c(=O)n9C8CCC(=O)NC8=O)cc7)CC6)CC5)cn4)cccc32)nn2c(C(=O)N[C@@H]3C[C@@H]3F)cnc12 (stereo partly drawn) [Example K627] |
| 1 to 10 | > 100 | > 100 | CNc1cc(Nc2cccc(-c3ccc(C(=O)N4CCN(CC5CCN(c6ccc(-c7ccc8c(c7)n(C)c(=O)n8C7CCC(=O)NC7=O)cc6)CC5)CC4)cn3)c2OC)nn2c(C(=O)N[C@@H]3C[C@@H]3F)cnc12 (stereo partly drawn) [Example K628] |
| < 1 | > 100 | > 100 | CNc1cc(Nc2cccc(-c3ccc(C(=O)N4CCC(CN5CCN(c6ccc(-c7ccc8c(c7)n(C)c(=O)n8C7CCC(=O)NC7=O)cc6)CC5)CC4)cn3)c2OC)nn2c(C(=O)N[C@@H]3C[C@@H]3F)cnc12 (stereo partly drawn) [Example K629] |
| 1 to 10 | > 100 | > 100 | CNc1cc(Nc2cccc(-c3ccc(CN4CCN(c5ccc(-c6ccc7c(c6)n(C)c(=O)n7C6CCC(=O)NC6=O)cc5)CC4)cn3)c2OC)nn2c(-c3cn(C(C)C)nn3)cnc12 (stereo not drawn) [Example K630] |
| 1 to 10 | > 100 | > 100 | CNc1cc(N2CCc3c(-c4ccc(CN5CCN(c6ccc(-c7ccc8c(c7)n(C)c(=O)n8C7CCC(=O)NC7=O)cc6)CC5)cn4)cccc32)nn2c(-c3cn(C(C)C)nn3)cnc12 (stereo not drawn) [Example K631] |
| < 1 | > 100 | > 100 | CNc1cc(Nc2cccc(-c3ccc(C(=O)N4CCN([C@H]5CC[C@H](c6ccc(-c7ccc8c(c7)n(C)c(=O)n8C7CCC(=O)NC7=O)cc6)CC5)CC4)cn3)c2)nn2c(C(=O)N[C@@H]3C[C@@H]3F)cnc12 (stereo partly drawn) [Example K632] |
| < 1 | > 100 | > 100 | CNc1cc(Nc2cccc(-c3ccc(C(=O)N4CCN(c5ccc(-c6ccc7c(c6)n(C)c(=O)n7C6CCC(=O)NC6=O)cc5)CC4)cn3)c2)nn2c(C(=O)N[C@@H]3C[C@@H]3F)cnc12 (stereo partly drawn) [Example K633] |
| < 1 | > 100 | > 100 | CNc1cc(N2CCc3c(CN4CCC(CN5CCN(c6ccc7c(c6)n(C)c(=O)n7C6CCC(=O)NC6=O)CC5)CC4)cccc32)nn2c(C(=O)N[C@@H]3C[C@@H]3F)cnc12 (stereo partly drawn) [Example K634] |
